The supplement of paper PMC10307832

Key:
Test in all cases: relative viability (nuclei count vs DMSO), 5 days (fraction); higher = more cells survive
[1] = compound: C1=CC=C2C(=C1)N=C(S2)C(C#N)C3=NC(=NC=C3)NCCC4=CN=CC=C4 + Nc1nc2[nH]cc(CCc3ccc(C(=O)N[C@@H](CCC(=O)O)C(=O)O)cc3)c2c(=O)[nH]1 [Pemetrexed] (partner 0.2 µM)
How it was run: (§1)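 A single step with final 0.05% Triton X-100, 1% formaldehyde and 1 ug/ml Hoechst fixed the cells and stained nuclei 5 days after treatment. Lung cancer cell lines in 1536-well plates had been treated by pin tool the day after seeding with one drug alone or a fixed anchor-drug dose plus five library-drug doses (not always all listed) in √10 steps, and nuclei were counted on 4× images. Relative viability is the ratio of nuclei in treated wells to nuclei in vehicle wells, taken as the median of duplicate plates.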

[2] = compound: COc1cc(N2CCC(N3CCN(C)CC3)CC2)ccc1Nc1ncc(Cl)c(Nc2ccccc2S(=O)(=O)C(C)C)n1 [NVP-TAE684] + CC(=O)c1c(C)c2cnc(Nc3ccc(N4CCNCC4)cn3)nc2n(C2CCCC2)c1=O [Palbociclib] (partner 0.5 µM)
How it was run: as §1

[3] = compound: COc1cc2/c(=N/c3ccc(Br)cc3F)nc[nH]c2cc1OCC1CCN(C)CC1 [Vandetanib] + CC(C)C[C@H](NC(=O)[C@H](Cc1ccccc1)NC(=O)c1cnccn1)B(O)O [Bortezomib] (partner 0.002 µM)
How it was run: as §1

[4] = compound: COc1cc2/c(=N/c3ccc(Br)cc3F)nc[nH]c2cc1OCC1CCN(C)CC1 [Vandetanib] + C[C@]1(O)C[C@@H](c2nc(-c3ccc4ccc(-c5ccccc5)nc4c3)c3c(N)nccn32)C1 [Linsitinib] (partner 1 µM)
How it was run: as §1

Cell Line	relative viability ([1]; first compound 0.005 µM)	relative viability ([1]; first compound 0.01581 µM)	relative viability ([1]; first compound 0.05 µM)	relative viability ([1]; first compound 0.1581 µM)	relative viability ([1]; first compound 0.5 µM)	relative viability ([2]; first compound 0.2 µM)	relative viability ([2]; first compound 0.6325 µM)	relative viability ([2]; first compound 2 µM)	relative viability ([3]; first compound 0.02 µM)	relative viability ([3]; first compound 0.06325 µM)	relative viability ([3]; first compound 0.2 µM)	relative viability ([3]; first compound 0.6325 µM)	relative viability ([3]; first compound 2 µM)	relative viability ([4]; first compound 0.02 µM)	relative viability ([4]; first compound 0.06325 µM)	relative viability ([4]; first compound 0.2 µM)	relative viability ([4]; first compound 0.6325 µM)	relative viability ([4]; first compound 2 µM)
NCI-H2126	0.577	0.73	0.652	0.69	0.726	0.34	0.329	0.327	1.09	1.07	1.06	1.08	1.06	0.67	0.728	0.73	0.765	0.647
LU99A	0.215	0.214	–	0.193	0.19	0.373	0.429	0.254	1.14	1.22	1.11	1.07	1.07	0.487	0.529	0.599	0.522	0.55
NCI-H650	0.938	0.879	0.905	0.924	1.14	0.313	0.319	0.318	0.757	0.877	0.705	0.862	0.596	0.872	0.839	0.677	0.792	0.254
LXF-289	0.832	0.979	0.876	0.912	0.857	0.56	0.618	0.643	0.999	0.895	0.932	1.04	0.986	0.949	0.942	0.957	0.971	0.967
CAL-12T	0.575	1.19	1.11	1.43	0.88	0.357	0.344	0.186	1.03	1.13	0.865	0.82	0.537	0.874	0.774	0.923	0.781	0.647
